System: strains of Enterobacteriaceae producing various carbapenemases (class A, D and B; 104 strains)
Test: Antibiotics potentiation by Compound 27 (MIC; meropenem, doripenem, ertapenem, cefepime)
Assay type: cell-based
Details: + 27 = with Compound 27 at fixed 4 μg/ml

COc1ccc2c(c1C(=O)O)OB(O)C(Sc1nnc(N)s1)C2 (centres unmarked) [E + 27]
MIC (strain CF1012 Citrobacter freundii (KPC-2)): X (MIC of less than 1 μg/mL)
MIC (strain CF1021 Citrobacter freundii (CMY-type; VIM-1)): X (MIC of less than 1 μg/mL)
MIC (strain CF1022 Citrobacter freundii (SHV-12(2be), TEM-OSBL(2b); IMP-8)): X (MIC of less than 1 μg/mL)
MIC (strain CF1023 Citrobacter freundii (SHV-12(2be), TEM-OSBL(2b); CTX-M-3; CMY-34; NDM-1)): X (MIC of less than 1 μg/mL)
MIC (strain CL1080 Enterobacter cloacae (IMP-1)): Y (MIC of 1 μg/mL to 10 μg/mL)
MIC (strain EA1019 Enterobacter aerogenes (SHV-5, VIM-1)): X (MIC of less than 1 μg/mL)
MIC (strain EC1007 Escherichia coli (KPC-3)): X (MIC of less than 1 μg/mL)
MIC (strain EC1061 Escherichia coli (NDM-1, CMY-6)): X (MIC of less than 1 μg/mL)
MIC (strain EC1062 Escherichia coli (OXA-48, CTX-M-15)): X (MIC of less than 1 μg/mL)
MIC (strain EC1064 Escherichia coli (NDM-1, CMY-6, CTX-M-15)): Z (MIC of greater than 10 μg/mL)
MIC (strain EC1065 Escherichia coli (IMP-1)): X (MIC of less than 1 μg/mL)
MIC (strain EC1068 Escherichia coli (VIM-1)): X (MIC of less than 1 μg/mL)
MIC (strain EC1069 Escherichia coli (CTX-M-27; NDM-1)): X (MIC of less than 1 μg/mL)
MIC (strain EC1070 Escherichia coli (TEM-OSBL(2b); CMY-42; NDM-5)): X (MIC of less than 1 μg/mL)
MIC (strain EC1072 Escherichia coli (CTX-M-3; NDM-1)): X (MIC of less than 1 μg/mL)
MIC (strain ECL1004 Enterobacter cloacae (NMC-A)): X (MIC of less than 1 μg/mL)
MIC (strain ECL1026 Enterobacter cloacae (KPC-2, TEM-1)): X (MIC of less than 1 μg/mL)
MIC (strain ECL1036 Enterobacter cloacae (KPC-3, TEM-1)): X (MIC of less than 1 μg/mL)
MIC (strain ECL1045 Enterobacter cloacae (VIM-1)): Y (MIC of 1 μg/mL to 10 μg/mL)
MIC (strain ECL1055 Enterobacter cloacae (KPC-3, TEM)): X (MIC of less than 1 μg/mL)
MIC (strain ECL1057 Enterobacter cloacae (NDM-1, TEM-1, CTX-M-15)): Z (MIC of greater than 10 μg/mL)
MIC (strain ECL1058 Enterobacter cloacae (KPC-3, SHV-11, TEM-1)): Y (MIC of 1 μg/mL to 10 μg/mL)
MIC (strain ECL1059 Enterobacter cloacae (KPC-3, SHV-12, TEM-1)): X (MIC of less than 1 μg/mL)
MIC (strain ECL1061 Enterobacter cloacae (KPC-3, Hyper AmpC expression)): Y (MIC of 1 μg/mL to 10 μg/mL)
MIC (strain ECL1082 Enterobacter cloacae (VIM-1)): X (MIC of less than 1 μg/mL)
MIC (strain ECL1084 Enterobacter cloacae (CTX-M-15; ACT-16; NDM-1)): X (MIC of less than 1 μg/mL)
MIC (strain ECL1085 Enterobacter cloacae (SHV-31(2be), TEM-1(2b); CTX-M-15; NDM-1)): X (MIC of less than 1 μg/mL)
MIC (strain ECL1086 Enterobacter cloacae (VIM-31, OXA-48(c))): Y (MIC of 1 μg/mL to 10 μg/mL)
MIC (strain ECL1087 Enterobacter cloacae (VIM-1)): X (MIC of less than 1 μg/mL)
MIC (strain ECL1088 Enterobacter cloacae (TEM-1(2b); CTX-M-14; ACT-type; VIM-1)): X (MIC of less than 1 μg/mL)
MIC (strain ECL1089 Enterobacter cloacae (ACT-type; IMP-1)): Z (MIC of greater than 10 μg/mL)
MIC (strain ECL1090 Enterobacter cloacae (TEM-1(2b); CTX-M-22; ACT-type; IMP-8)): X (MIC of less than 1 μg/mL)
MIC (strain ECL1091 Enterobacter cloacae (VIM-1)): X (MIC of less than 1 μg/mL)
MIC (strain ECL1092 Enterobacter cloacae (TEM-OSBL(2b); ACT-32; VIM-1)): X (MIC of less than 1 μg/mL)
MIC (strain ECL1093 Enterobacter cloacae (TEM-OSBL(2b); ACT-32; VIM-1)): X (MIC of less than 1 μg/mL)
MIC (strain ECL1094 Enterobacter cloacae (VIM-1)): Y (MIC of 1 μg/mL to 10 μg/mL)
MIC (strain ECL1096 Enterobacter cloacae (CMY-4, VIM-4, OXA-48(c))): X (MIC of less than 1 μg/mL)
MIC (strain ECL1097 Enterobacter cloacae (SHV-31(2be), TEM-OSBL(2b); CTX-M-15; ACT-31; NDM-1)): X (MIC of less than 1 μg/mL)
MIC (strain ECL1098 Enterobacter cloacae (TEM-OSBL(2b); DHA-1; ACT-16; NDM-1)): X (MIC of less than 1 μg/mL)
MIC (strain KP1001 Klebsiella pneumoniae (KPC TEM SHV)): Z (MIC of greater than 10 μg/mL)
MIC (strain KP1002 Klebsiella pneumoniae (KPC TEM SHV)): X (MIC of less than 1 μg/mL)
MIC (strain KP1003 Klebsiella pneumoniae (KPC TEM SHV)): X (MIC of less than 1 μg/mL)
MIC (strain KP1004 Klebsiella pneumoniae (KPC-2, TEM-1, SHV-11)): X (MIC of less than 1 μg/mL)
MIC (strain KP1008 Klebsiella pneumoniae (KPC-2)): X (MIC of less than 1 μg/mL)
MIC (strain KP1014 Klebsiella pneumoniae (VIM-1, TEM, SHV)): X (MIC of less than 1 μg/mL)
MIC (strain KP1054 Klebsiella pneumoniae (VIM-1, SHV-11)): X (MIC of less than 1 μg/mL)
MIC (strain KP1059 Klebsiella pneumoniae (VIM-1, SHV-11)): Y (MIC of 1 μg/mL to 10 μg/mL)
MIC (strain KP1061 Klebsiella pneumoniae (KPC-3, SHV-11, TEM-1)): X (MIC of less than 1 μg/mL)
MIC (strain KP1064 Klebsiella pneumoniae (KPC-2, SHV-11, TEM-1)): Z (MIC of greater than 10 μg/mL)
MIC (strain KP1065 Klebsiella pneumoniae (VIM-1, SHV-11)): X (MIC of less than 1 μg/mL)
MIC (strain KP1070 Klebsiella pneumoniae (KPC-2, SHV-11, TEM-1)): X (MIC of less than 1 μg/mL)
MIC (strain KP1074 Klebsiella pneumoniae (KPC-3, SHV-11, TEM)): Z (MIC of greater than 10 μg/mL)
MIC (strain KP1081 Klebsiella pneumoniae (NDM-1, TEM-1, SHV-11, CMY-6, CTX-M-15)): Y (MIC of 1 μg/mL to 10 μg/mL)
MIC (strain KP1082 Klebsiella pneumoniae (KPC-2, SHV-1)): X (MIC of less than 1 μg/mL)
MIC (strain KP1083 Klebsiella pneumoniae (KPC-3, SHV-1, TEM-1)): X (MIC of less than 1 μg/mL)
MIC (strain KP1084 Klebsiella pneumoniae (KPC-3, SHV-11, TEM-1)): Z (MIC of greater than 10 μg/mL)
MIC (strain KP1086 Klebsiella pneumoniae (OXA-48, CTX-M-15, TEM, SHV)): Z (MIC of greater than 10 μg/mL)
MIC (strain KP1087 Klebsiella pneumoniae (KPC-2, CTX-M-15, SHV-11, TEM-1)): Y (MIC of 1 μg/mL to 10 μg/mL)
MIC (strain KP1088 Klebsiella pneumoniae (KPC-3, SHV-11, TEM-1)): X (MIC of less than 1 μg/mL)
MIC (strain KP1089 Klebsiella pneumonias (OXA-181, CTX-M-15, TEM, SHV)): X (MIC of less than 1 μg/mL)
MIC (strain KP1095 Klebsiella pneumoniae (KPC-2 TEM-1 SHV-1)): X (MIC of less than 1 μg/mL)
MIC (strain KP1096 Klebsiella pneumoniae (KPC-2 TEM-181 SHV-11)): X (MIC of less than 1 μg/mL)
MIC (strain KP1097 Klebsiella pneumonias (IMP-1)): X (MIC of less than 1 μg/mL)
MIC (strain KP1098 Klebsiella pneumoniae (IMP-26)): Y (MIC of 1 μg/mL to 10 μg/mL)
MIC (strain KP1104 Klebsiella pneumoniae (KPC TEM)): X (MIC of less than 1 μg/mL)
MIC (strain KP1105 Klebsiella pneumoniae (KPC TEM SHV)): X (MIC of less than 1 μg/mL)
MIC (strain KP1159 Klebsiella pneumoniae (SHV-1(2b); CTX-M-15; IMP-4)): Y (MIC of 1 μg/mL to 10 μg/mL)
MIC (strain KP1160 Klebsiella pneumoniae (SHV-28(2be); CTX-M-15; IMP-26)): Y (MIC of 1 μg/mL to 10 μg/mL)
MIC (strain KP1161 Klebsiella pneumoniae (NDM-1)): X (MIC of less than 1 μg/mL)
MIC (strain KP1164 Klebsiella pneumoniae (SHV-12(2be); VIM-1)): X (MIC of less than 1 μg/mL)
MIC (strain KP1165 Klebsiella pneumoniae (SHV-11(2b); CTX-M-15; VIM-27)): Z (MIC of greater than 10 μg/mL)
MIC (strain KP1166 Klebsiella pneumoniae (SHV-5(2be); VIM-26)): Y (MIC of 1 μg/mL to 10 μg/mL)
MIC (strain KP1167 Klebsiella pneumoniae (SHV-12(2be); VIM-1)): X (MIC of less than 1 μg/mL)
MIC (strain KP1169 Klebsiella pneumoniae (SHV-11(2b); VIM-1)): X (MIC of less than 1 μg/mL)
MIC (strain KP1170 Klebsiella pneumoniae (SHV-11(2b); CTX-M-15; NDM-1)): X (MIC of less than 1 μg/mL)
MIC (strain KP1172 Klebsiella pneumoniae (SHV-31(2be); DHA-1; VIM-1)): X (MIC of less than 1 μg/mL)
MIC (strain KP1173 Klebsiella pneumoniae (TEM-33(2br); CTX-M-15; IMP-1)): X (MIC of less than 1 μg/mL)
MIC (strain KP1174 Klebsiella pneumoniae (CTX-M-14; IMP-1)): X (MIC of less than 1 μg/mL)
MIC (strain KP1175 Klebsiella pneumoniae (SHV-OSBL(2b); VIM-1)): X (MIC of less than 1 μg/mL)
MIC (strain KP1177 Klebsiella pneumoniae (SHV-OSBL(2b), TEM-OSBL(2b); CTX-M-15; NDM-1)): X (MIC of less than 1 μg/mL)
MIC (strain KP1178 Klebsiella pneumoniae (SHV-OSBL(2b;) TEM-OSBL(2b); CTX-M-15; NDM-1)): X (MIC of less than 1 μg/mL)
MIC (strain KP1179 Klebsiella pneumoniae (SHV-12(2be), TEM-OSBL(2b); CTX-M-15; NDM-7)): X (MIC of less than 1 μg/mL)
MIC (strain KP1180 Klebsiella pneumoniae (SHV-OSBL(2b), TEM-OSBL(2b); CTX-M-15; DHA-1; IMP-26)): X (MIC of less than 1 μg/mL)
MIC (strain KP1181 Klebsiella pneumoniae (SHV-OSBL(2b); CTX-M-15; IMP-26)): X (MIC of less than 1 μg/mL)
MIC (strain KP1183 Klebsiella pneumoniae (SHV-OSBL(2b), TEM-OSBL(2b); CTX-M-15; NDM-1)): X (MIC of less than 1 μg/mL)
MIC (strain KP1184 Klebsiella pneumoniae (SHV-OSBL(2b); IMP-1)): X (MIC of less than 1 μg/mL)
MIC (strain KP1185 Klebsiella pneumoniae (SHV-OSBL(2b), TEM-OSBL(2b); IMP-4)): Y (MIC of 1 μg/mL to 10 μg/mL)
MIC (strain KP1186 Klebsiella pneumoniae (CTX-M-15; NDM-1)): X (MIC of less than 1 μg/mL)
MIC (strain KP1187 Klebsiella pneumoniae (SHV-55(2be), TEM-OSBL(2b); CTX-M-15; NDM-1)): X (MIC of less than 1 μg/mL)
MIC (strain KP1188 Klebsiella pneumoniae (SHV-OSBL(2b); CTX-M-15; NDM-1)): Y (MIC of 1 μg/mL to 10 μg/mL)
MIC (strain KP1189 Klebsiella pneumoniae (TEM-OSBL(2b); CTX-M-15; CTX-M-27; NDM-1)): X (MIC of less than 1 μg/mL)
MIC (strain KPM1123 Klebsiella pneumoniae (KPC-2 TEM SHV)): X (MIC of less than 1 μg/mL)
MIC (strain KPM1202 Klebsiella pneumoniae (KPC SHV TEM)): X (MIC of less than 1 μg/mL)
MIC (strain KPM1203 Klebsiella pneumoniae (KPC SHV TEM)): X (MIC of less than 1 μg/mL)
MIC (strain KPM1344 Klebsiella pneumoniae (VIM-1)): X (MIC of less than 1 μg/mL)
MIC (strain KPM1345 Klebsiella pneumoniae (VIM-1 SHV)): X (MIC of less than 1 μg/mL)
MIC (strain KPM1347 Klebsiella pneumoniae (NDM-1 SHV CTX-M-15)): X (MIC of less than 1 μg/mL)
MIC (strain KX1017 Klebsiella oxytoca (KPC-2, OXA-2, SHV-30)): X (MIC of less than 1 μg/mL)
MIC (strain KX1018 Klebsiella oxytoca (KPC-2, SHV-40, OXY-1)): X (MIC of less than 1 μg/mL)
MIC (strain KX1019 Klebsiella oxytoca (KPC-2, OXA-2)): X (MIC of less than 1 μg/mL)
MIC (strain PM1024 Proteus mirabilis (TEM-1(2b); CMY-16; VIM-1)): X (MIC of less than 1 μg/mL)
MIC (strain PM1026 Proteus mirabilis (DHA-1; IMP-26)): X (MIC of less than 1 μg/mL)
MIC (strain PM1027 Proteus mirabilis (VIM-5)): X (MIC of less than 1 μg/mL)
MIC (strain SM1023 Serratia marcescens (VIM-4)): Y (MIC of 1 μg/mL to 10 μg/mL)
